Reference: paper PMC7418987, “NHD2-15, a novel antagonist of Growth Factor Receptor-Bound Protein-2 (GRB2), inhibits leukemic proliferation” (PLoS ONE, 2020)

What was measured:
Assay type in all cases: binding
[1] = target: T1, Growth factor receptor-bound protein-2 (GRB2) (Homo sapiens, UniProt P62993); assay: SPR (GRB2 immobilized on CM5 chip); supported by competition ELISA with GST-GRB2 and cellulose nitrate filtration assay
[2] = target: T1, Growth factor receptor-bound protein-2 (GRB2); assay: SPR (GRB2 immobilized on CM5 chip); authors call conditions sub-par; only two non-zero concentrations shown
Excerpt: SPR (GRB2 immobilized on CM5 chip); authors call conditions sub-par; only two non-zero concentrations shown on Growth factor receptor-bound protein-2 (GRB2) | SPR data of NHD2-107 versus GRB2.

[3] = target: T1, Growth factor receptor-bound protein-2 (GRB2); assay: SPR (GRB2 immobilized on CM5 chip); authors call conditions sub-par for this compound

Kd [3] | SMILES | further results
– | CC(=O)c1c(C)oc2nc3ccccc3nc12 [NHD2-15] | Kd [1]: 119 ± 2 µM
– | CCOC(=O)c1c(-c2ccccc2)oc2nc3ccccc3nc12 [NHD2-107] | Kd [2]: 3400 ± 100 µM
440 ± 7 µM | CCOC(=O)c1c(C)oc2nc3ccccc3nc12 [NHD2-114] | –
1000 ± 20 µM | COC(=O)c1c(C)oc2nc3ccccc3nc12 [NHD2-92] | –
